Earlier results in patent US6482309B1, “Electrolytic generation of nascent iodine as a method of treatment and for the prevention of infections associated with medical implant devices” (OxiBio, Inc., priority 1999, dated 2002).

Test system: bacteria and viruses

Which “level of free iodine required for efficient microbial killing” value does the source give for `II` [free iodine, iodine] here?
The value was about 2 ppm.
